From patent US20050220800A1, “Cytokines and cytokine receptors with reduced immunogenicity” (priority 2002, published 2005)

How the values were obtained:
human CD4+ T-cells [1] = test: I-MUNE assay of human erythropoietin peptides; assay type: cell-based; details: 59 donors; FIG. 11
Protocol: Peptides for use in the I-MUNE® assay as described in Example 3 were prepared based on the sequence of human erythropoietin (EPO), (GenBank Accession No. P1588), with the sequence:
The I-MUNE® assay described in Example 3, was conducted using cells obtained from 59 donors. FIG. 11 provides a graph showing the data obtained in the I-MUNE® assay with the pepset produced from the EPO sequence above (SEQ ID NO:108). […] Peptide #34 has the sequence SGLRSLTTLLRALGA (SEQ ID NO:109), and peptide #48 has the sequence FRVYSNFLRGKLKLY (SEQ ID NO:110). As active mutants have been made in the region represented by peptides #34 and #48 (See, Elliott et al., 89:493-502 [1997]), it is contemplated that amino acid modifications in or around these peptides will provide variant EPO suitable for use as an EPO substitute.

human CD4+ T-cells [2] = test: I-MUNE assay of IFN-β variant peptides; assay type: cell-based; details: for status on additional testing: FIG. 5
Protocol: A set of variant peptides was ordered based on the sequences of peptides #1 (SEQ ID NO:2), #27 (SEQ ID NO:28), and #40 (SEQ ID NO:41). An alanine scan was performed for each peptide. In addition, variant peptides were ordered that corresponded to the peptide sequences as described by Runkel et al., (Runkel et al., Biochem., 39:2538-2551 [2000]). These variant peptides were synthesized by Mimotopes (San Diego, Calif.) using the multi-pin synthesis technique known in the art (See e.g., Maeji et al., J. Immunol. Meth., 134:23-33 [1990]).
The I-IMUNE® assay was performed as described in Example 3, utilizing the variant peptides on a set of 103 donor samples. […] Epitope #40 returned a consistent donor response percent of 15%.

human CD4+ T-cells [3] = test: I-MUNE assay of IFN-β 15mer peptides (T-cell proliferation); assay type: cell-based; details: percent of donors with proliferative response at least 2.95 times baseline; 87 donors; 5 μM peptide
Protocol: Fresh human peripheral blood cells were collected from 87 humans of unknown exposure status to IFN-β. These cells were tested to determine antigenic epitopes in IFN-β, as described in Example 3.
Peripheral mononuclear blood cells (stored at room temperature, no older than 24 hours) were prepared for use as follows: Approximately 30 mls of a solution of buffy coat preparation from one unit of whole blood was brought to 50 ml with Dulbecco's phosphate buffered solution (DPBS) and split into two tubes. The samples were underlaid with 12.5 ml of room temperature Lymphoprep density separation media (Nycomed; Pharma AS; Density 1.077 g/ml). The tubes were centrifuged for thirty minutes at 600×g. The interface of the two phases was collected, pooled and washed in DPBS. The cell density of the resultant solution was measured by hemocytometer, as known in the art. Viability was measured by trypan blue exclusion, as known in the art. […]
CD4+ T cells were prepared from frozen aliquots of the peripheral blood cell samples used to prepare the dendritic cells, using reagents provided by the Dynal CD4+ T-cell enrichment kit (Dynal). The resultant CD4+ cell solution was centrifuged, resuspended in AIMV media and the cell density was determined using methods known in the art. […]

human CD4+ T-cells [4] = test: I-MUNE assay of human thrombopoietin peptides; assay type: cell-based
Protocol: Peptides for use in the I-MUNE® assay as described in Example 3 were prepared based on the sequence of the first 152 residues of human thrombopoietin (i.e., the active domain of TPO), as well as the entire TPO sequence, including the CHO binding domain (GenBank Accession No. P40225) with the sequence:
The I-MUNE® assay described in Example 3, was conducted using cells obtained from 99 donors. The background was determined to be 2.5, and the standard deviation was 9.2. FIG. 7 provides a graph showing the data obtained in the I-MUNE® assay with the first 152 residues of TPO (i.e., the active domain).
FIG. 8 provides a graph showing the results for the I-MUNE® assay conducted using the entire TPO molecule, including the CHO binding domain.
FIG. 9, Panels A and B provide graphs showing the results for TPO epitope #45, in which the critical residues were tested. The average parental residue response was 9.18±1.82. Values less that 3.5% were equivalent to 3 standard deviations under the averaged response of the parent peptides.

HLA-DR and -DQ antigens = test: HLA association with response to epitope peptide #40; set-up: species or system human; details: for percent non-responsive / percent responsive / relative risk: 186 donors
Protocol: The HLA-DR and DQ expression of all the donors tested in both rounds of assay testing described above were assessed using a commercially available PCR-based HLA typing kit (Bio-Synthesis). The phenotypic frequencies of individual HLA-DR and -DQ antigens among responders and non-responders to peptide #40 were tested using a chi-squared analysis with 1 degree of freedom. The increased or decreased likelihood of reacting to epitope #40, the relative risk, was calculated wherever the HLA antigen in question was present in both responding and non-responding donor samples.
A total of 186 donors were completely HLA typed, and were included in the analysis for epitope peptide #40.
The magnitude of the proliferative response to peptide #40 in responders and non-responders expressing HLA-DQ6 was also analyzed. […] As a control, non-responders to the peptide returned the same level of proliferation the peptide regardless of their expression of HLA-DQ6.

human CD4+ T-cells [5] = test: I-MUNE assay of soluble human TNF-R1 peptides; assay type: cell-based; details: FIG. 10
Protocol: Peptides for use in the I-MUNE® assay as described in Example 3 were prepared based on the sequence of the soluble human tumor necrosis factor receptor 1 (TNF-R1) (GenBank Accession No. P19438) with the sequence:
The background was determined to be 2.23 and the value for three standard deviations was 8.07. This epitope has the sequence CSLCLNGTVHLSCQE (SEQ ID NO:107). […] This variant was then reported to have a reduced immunogenic capacity when tested in a non-human primate (See, Rosenberg et al., J. Appl. Physiol., 91:2213-2223 [2001]). Thus, it is contemplated that modifications in this epitope will provide advantages in the development of sTNFR-1 for use in treatment.

FRVYSNFLRGKLKLY (listed as Homo sapiens) [peptide #48]
epitope identification (human CD4+ T-cells [1]): Epitopes of interest

peptide #27: 15mer peptide of human IFN-β pepset, SEQ ID NO:28 (WNETIVENLLANVYR)
status on additional testing (human CD4+ T-cells [2]): non-statistically relevant

peptide #1: 15mer peptide of human IFN-β pepset, SEQ ID NO:2 (MSYNLLGFLQRSSNF)
status on additional testing (human CD4+ T-cells [2]): non-statistically relevant | percent response (human CD4+ T-cells [3]): ≥ 9.51%

RAPPTTAVPSRTSLVLTL (listed as Homo sapiens) [peptide #45]
response (human CD4+ T-cells [4]; TPO epitope #45 critical residue testing, FIG. 9): 9.18±1.82% | epitope identification (human CD4+ T-cells [4]; entire TPO molecule, 99 donors, FIG. 8): epitope of interest

peptide #40: 15mer peptide of human IFN-β pepset, SEQ ID NO:41; identified CD4+ T-cell epitope (SSLHLKRYYGRILHY)
donor response percent (human CD4+ T-cells [2]; 103 donor samples): 15% | percent response (human CD4+ T-cells [3]): 18.18% | magnitude of the proliferative response in responders expressing HLA-DQ6 versus responders not expressing HLA-DQ6 (HLA-DR and -DQ antigens; FIG. 6, responder = stimulation index greater than 2.95): significantly higher | percent non-responsive (HLA-DR and -DQ antigens; HLA-DQ6): 25% | percent responsive (HLA-DR and -DQ antigens; HLA-DQ6): 61% | relative risk (HLA-DR and -DQ antigens; HLA-DQ6): 3.58 | percent non-responsive (HLA-DR and -DQ antigens; HLA-DR1): 3% | percent responsive (HLA-DR and -DQ antigens; HLA-DR1): 17% | relative risk (HLA-DR and -DQ antigens; HLA-DR1): 0.19 | percent non-responsive (HLA-DR and -DQ antigens; HLA-DR15): 15% | percent responsive (HLA-DR and -DQ antigens; HLA-DR15): 39% | relative risk (HLA-DR and -DQ antigens; HLA-DR15): 2.68

SGLRSLTTLLRALGA (listed as Homo sapiens) [peptide #34]
epitope identification (human CD4+ T-cells [1]): Epitopes of interest

CSLCLNGTVHLSCQE (listed as Homo sapiens) [SEQ ID NO:107]
epitope identification (human CD4+ T-cells [5]): significant epitope
